Laboratory results taken from PubChem BioAssay (NCI).
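1) Cells in 96-well plates. 2) Compound, 48 h, 5 concentrations. 3) Linear interpolation between surrounding doses. 4) Unreached endpoint = highest concentration. TGI marks complete inhibition of growth.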

Columns and labels:
Test in all cases: DTP human tumour cell line panel, 48 h
ACHN renal = system: ACHN renal
UACC-62 melanoma = system: UACC-62 melanoma
SR leukemia = system: SR leukemia
UACC-257 melanoma = system: UACC-257 melanoma
SNB-19 CNS = system: SNB-19 CNS
HOP-92 NSCLC = system: HOP-92 NSCLC
NCI-H460 lung = system: NCI-H460 lung
HCT-116 colon = system: HCT-116 colon
OVCAR-5 ovarian = system: OVCAR-5 ovarian
HL-60(TB) leukemia = system: HL-60(TB) leukemia

Structure (SMILES): CCn1c(=O)c2c3cc(OC(C)=O)ccc3oc2c2ccc(OC(C)=O)cc21
- TGI (ACHN renal): 85.9 µM
- TGI (UACC-62 melanoma): > 100 µM
- TGI (SR leukemia): > 100 µM
- TGI (UACC-257 melanoma): > 100 µM
- TGI (SNB-19 CNS): > 100 µM
- TGI (HOP-92 NSCLC): 90.5 µM
- TGI (NCI-H460 lung): > 100 µM
- TGI (HCT-116 colon): > 100 µM

Structure (SMILES): CN(C)/C=C/c1c2c(nc3ccccc13)C(=O)c1ccccc1C2=O
- TGI (ACHN renal): 3.44 µM
- TGI (UACC-62 melanoma): 0.739 µM
- TGI (SR leukemia): 3.09 µM
- TGI (UACC-257 melanoma): 1.77 µM
- TGI (SNB-19 CNS): 4.88 µM
- TGI (OVCAR-5 ovarian): 8.45 µM
- TGI (HOP-92 NSCLC): 30 µM
- TGI (NCI-H460 lung): 1.4 µM
- TGI (HCT-116 colon): 3.26 µM

Structure (SMILES): O[C@H]1[C@H](O)[C@@H](Cn2nnc(-c3ccccc3)c2-c2ccccc2)OCO[C@@H]1Cn1nnc(-c2ccccc2)c1-c1ccccc1
- TGI (ACHN renal): 13.6 µM
- TGI (UACC-62 melanoma): 11.7 µM
- TGI (HL-60(TB) leukemia): > 24 µM
- TGI (UACC-257 melanoma): 15.1 µM
- TGI (SNB-19 CNS): 55.4 µM
- TGI (OVCAR-5 ovarian): 6.49 µM
- TGI (HOP-92 NSCLC): 8.23 µM
- TGI (NCI-H460 lung): 13.4 µM
- TGI (HCT-116 colon): 9.63 µM

Structure (SMILES): Cc1ccc([N+](=O)[O-])cc1S(=O)(=O)Nc1ccc(C2=NN(S(=O)(=O)c3cc([N+](=O)[O-])ccc3C)C(c3ccco3)C2)cc1 (centres undefined)
- TGI (ACHN renal): > 100 µM
- TGI (UACC-62 melanoma): > 100 µM
- TGI (SR leukemia): > 100 µM
- TGI (HL-60(TB) leukemia): 98.2 µM
- TGI (UACC-257 melanoma): 45.6 µM
- TGI (SNB-19 CNS): > 100 µM
- TGI (OVCAR-5 ovarian): > 100 µM
- TGI (HOP-92 NSCLC): 47.7 µM
- TGI (HCT-116 colon): > 100 µM

Structure (SMILES): Cc1ccc(S(=O)(=O)N2CCCSCCN(S(=O)(=O)c3ccc(C)cc3)CCCSCC2)cc1
- TGI (ACHN renal): > 100 µM
- TGI (UACC-62 melanoma): > 100 µM
- TGI (HL-60(TB) leukemia): > 100 µM
- TGI (UACC-257 melanoma): > 100 µM
- TGI (SNB-19 CNS): > 100 µM
- TGI (OVCAR-5 ovarian): > 100 µM
- TGI (HOP-92 NSCLC): > 100 µM
- TGI (NCI-H460 lung): > 100 µM
- TGI (HCT-116 colon): > 100 µM

Structure (SMILES): CC(C)[C@](O)(C(=O)OCC1=CCN2CC[C@@H](O)[C@@H]12)[C@H](C)O
- TGI (UACC-62 melanoma): > 375 µM
- TGI (HL-60(TB) leukemia): > 375 µM
- TGI (UACC-257 melanoma): > 375 µM
- TGI (SNB-19 CNS): > 375 µM
- TGI (OVCAR-5 ovarian): > 375 µM
- TGI (HOP-92 NSCLC): > 375 µM
- TGI (NCI-H460 lung): > 375 µM
- TGI (HCT-116 colon): > 375 µM

Structure (SMILES): COc1cc2cc(C(=O)N3CC(CCl)c4c3cc(O)c3ccccc43)[nH]c2c(OC)c1OC (centres undefined)
- TGI (UACC-62 melanoma): 0.291 µM
- TGI (SR leukemia): > 50 µM
- TGI (HL-60(TB) leukemia): < 0.005 µM
- TGI (SNB-19 CNS): 1.12 µM
- TGI (OVCAR-5 ovarian): 0.549 µM
- TGI (NCI-H460 lung): < 0.005 µM
- TGI (HCT-116 colon): 5.85 µM

Structure (SMILES): O=P1(Oc2ccccc2)NCc2ncccc2O1 (centres undefined)
- TGI (ACHN renal): > 100 µM
- TGI (UACC-62 melanoma): > 100 µM
- TGI (SR leukemia): > 100 µM
- TGI (UACC-257 melanoma): > 100 µM
- TGI (SNB-19 CNS): > 100 µM
- TGI (OVCAR-5 ovarian): > 100 µM
- TGI (HOP-92 NSCLC): > 100 µM
- TGI (NCI-H460 lung): > 100 µM
- TGI (HCT-116 colon): > 100 µM

Structure (SMILES): CCOC(=O)C1=C(C)NC(C)=C(C(=O)OCC)C1c1ccc(C)cc1
- TGI (ACHN renal): > 100 µM
- TGI (UACC-62 melanoma): > 100 µM
- TGI (UACC-257 melanoma): > 100 µM
- TGI (SNB-19 CNS): > 100 µM
- TGI (OVCAR-5 ovarian): > 100 µM
- TGI (HOP-92 NSCLC): 51.5 µM
- TGI (NCI-H460 lung): 48 µM
- TGI (HCT-116 colon): > 100 µM

Structure (SMILES): CC(=O)OCCOCCN1CCN(c2c(O)c3c(c(O)c2Cl)C(=O)C=CC3=O)CC1
- TGI (ACHN renal): 0.757 µM
- TGI (UACC-62 melanoma): 2.81 µM
- TGI (SR leukemia): 4.54 µM
- TGI (HL-60(TB) leukemia): 0.238 µM
- TGI (UACC-257 melanoma): 2.38 µM
- TGI (SNB-19 CNS): 6.82 µM
- TGI (OVCAR-5 ovarian): 2.97 µM
- TGI (HOP-92 NSCLC): 0.822 µM
- TGI (HCT-116 colon): 0.72 µM

Structure (SMILES): CCOP(C)(=O)/C(Cc1ccc(OC)c(OC)c1)=N\O (centres undefined)
- TGI (ACHN renal): > 100 µM
- TGI (UACC-62 melanoma): > 100 µM
- TGI (SR leukemia): > 100 µM
- TGI (HL-60(TB) leukemia): > 100 µM
- TGI (SNB-19 CNS): > 100 µM
- TGI (OVCAR-5 ovarian): > 100 µM
- TGI (HOP-92 NSCLC): > 100 µM
- TGI (NCI-H460 lung): > 100 µM
- TGI (HCT-116 colon): > 100 µM
